The values that follow come from patent US11040028B2, “Penicinotam derivative, preparation method and use thereof” (OCEAN UNIVERSITY OF CHINA, priority 2017, dated 2021).

What all share (format): cell-based
The subject of one test is BHK-21 cells. Briefly: Anti-fibrosis activity test: inhibition of BHK-21 cell proliferation (CCK-8). The conditions noted are these: Mesocricetus auratus, BHK-21, 48 h, CCK-8, 48 hours after administration. A digest of the protocol: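 Proliferation of BHK-21 cells is measured by CCK-8 at 450 nm following 48 h compound exposure at several concentrations. Inhibition is expressed relative to blank control and IC50 is computed from it.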

The subject of test [1] is human lung fibroblasts HFL1. Briefly: Anti-fibrosis activity test: inhibition of proliferation of human lung fibroblasts HFL1 (CCK-8). The conditions noted are these: Homo sapiens, HFL1, 48 h, human lung fibroblasts HFL1, CCK-8, 48 hours. The gist of the method:
(§1)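 Using CCK-8 colorimetry (450 nm), the study assessed growth inhibition after 48 h compound exposure; plating density was 2×10^4 cells/mL with 24 h attachment beforehand. IC50 was calculated from (1−Ai/Ao)×100%.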

Test [2] relates to human hepatic stellate cells LX-2. Briefly: Anti-fibrosis activity test: inhibition of proliferation of human hepatic stellate cells LX-2 (CCK-8). The settings on record: Homo sapiens, 48 h, human hepatic stellate cells LX-2, CCK-8, 48 hours. A digest of the protocol: as §1
In test [3] the test system is human fibrosarcoma cells HT-1080. Briefly: Anti-fibrosis activity test: inhibition of proliferation of human fibrosarcoma cells HT-1080 (CCK-8). The settings on record: Homo sapiens, HT-1080, 48 h, human fibrosarcoma cells HT-1080, CCK-8, 48 hours. The gist of the method: as §1
Test [4] relates to human dermal fibroblasts CCC-ESF-1. Briefly: Anti-fibrosis activity test: inhibition of proliferation of human dermal fibroblasts CCC-ESF-1 (CCK-8). The conditions noted are these: Fibroblast; human dermal fibroblasts CCC-ESF-1, CCK-8, 48 hours. The gist of the method: as §1
The subject of test [5] is human embryonic lung fibroblast IMR-90. Briefly: Anti-fibrosis activity test: inhibition of proliferation of human embryonic lung fibroblast IMR-90 (CCK-8). The settings on record: human embryonic lung fibroblast IMR-90, CCK-8, 48 hours. The gist of the method:
as §1

The test system of test [6] is cardiac fibroblast RAT-iCell-C002. Briefly: Anti-fibrosis activity test: inhibition of proliferation of cardiac fibroblast RAT-iCell-C002 (CCK-8). The conditions noted are these: Cardiac fibroblast, 48 h, cardiac fibroblast RAT-iCell-C002, CCK-8, 48 hours. The gist of the method:
as §1

The next test deals with NF-κB. Nature of the test: Immunological activity test: inhibition of NF-κB activity. The conditions noted are these: initial concentration of 30 μM; a/b isomers given as first/second symbol; read-out: IC50 (μM), inhibitory activity against NF-κB. The gist of the method: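 Parthenolide as positive control; starting test concentration 30 μM; inhibition of NF-κB activity analysed further to yield IC50.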

For test [7], the system named is mouse macrophages (RAW264.7). Briefly: Lipopolysaccharide-induced NO secretion in macrophages (Griess). The conditions noted are these: Mus musculus, RAW264.7, 24 h, RAW264.7, LPS 1 μg/ml, a/b isomers given as first/second symbol, read-out: IC50 (μM), inhibition of lipopolysaccharide-induced NO secretion in macrophages. The gist of the method:
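Indomethacin and resveratrol served as positive controls while compounds were tested across concentrations on LPS-stimulated (1 μg/ml, 24 h) RAW264.7 cells. NO output was quantified colorimetrically (Griess, 548 nm).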
Background: Nitrite, measured by Griess reagent, commonly stands in for NO production.

With `O=C1c2c(nc3ccccc3c2OCCF)-c2cccn21` [Compound 653b, 9-(2-fluoroethoxy)-10H-pyrrolizino[1,2-b]quinolin-10-one], the IC50 (with BHK-21 cells; in [1]; in test [2]; in test [3]; in test [4]; in test [5]) was 0.05 to 5 mM each time. Also, the results for the IC50 (in test [6]; in the test with NF-κB; in [7]) were 0.05 to 5 mM, 1 to 10 µM and 1 to 10 µM, respectively.

For `CCOC(=O)Cn1c2c(c(=O)c3ccccc31)C(=O)n1cccc1-2` [Compound 654a, Ethyl 2-(9,10-dioxo-9H-pyrrolizino[1,2-b]quinolin-4(10H)-yl)acetate], the IC50 (usually the concentration at which inhibition is half-maximal) in the test on BHK-21 cells was 5 to 20 mM; in test [1] it was 0.05 to 5 mM; in test [2], 0.05 to 5 mM; in [3], 0.05 to 5 mM; in test [4] it was under 0.05 mM; in [5], 0.05 to 5 mM. Moreover, the figures for the IC50 (in test [6]; in the test on NF-κB; in test [7]) were 0.05 to 5 mM, 1 to 10 µM and 1 to 10 µM, respectively.

As for `CCOC(=O)COc1c2c(nc3ccccc13)-c1cccn1C2=O` [Compound 654b, ethyl 2-((10-oxo-10H-pyrrolizino[1,2-b]quinolin-9-yl)oxy)acetate], the IC50 in the test with BHK-21 cells was 0.05 to 5 mM; in test [1], 0.05 to 5 mM; in test [2] it was 0.05 to 5 mM; in test [3], 0.05 to 5 mM; in [4], under 0.05 mM; in test [5], 0.05 to 5 mM. The IC50 in [6] lay in the range of 0.05 to 5 mM; with NF-κB, 1 to 10 µM; in test [7] it was 1 to 10 µM.

`CC(C)(C)Cn1c2c(c(=O)c3ccccc31)C(=O)n1cccc1-2` [Compound 656a, 4-Neopentyl-9H-pyrrolizino[1,2-b]quinoline-9,10(4H)-dione]: the IC50 (with BHK-21 cells; in [1]; in test [2]; in test [3]; in test [4]; in [5]) was 0.05 to 5 mM throughout. Besides, the IC50 in test [6] was in the range of 0.05 to 5 mM; with NF-κB, 1 to 10 µM; in test [7] it was 1 to 10 µM.

Regarding `CC(C)(C)COc1c2c(nc3ccccc13)-c1cccn1C2=O` [Compound 656b, 9-(neopentyloxy)-10H-pyrrolizino[1,2-b]quinolin-10-one], the IC50 (in the test with BHK-21 cells; in [1]; in [2]; in test [3]; in test [4]; in test [5]) was 0.05 to 5 mM in each case. Also, the results for the IC50 (in [6]; in the test with NF-κB; in test [7]) were 0.05 to 5 mM, 1 to 10 µM and 1 to 10 µM, respectively.

Turning to `O=C1c2c(n(CC(F)(F)F)c3ccccc3c2=O)-c2cccn21` [Compound 657a, 4-(2,2,2-Trifluoroethyl)-9H-pyrrolizino[1,2-b]quinoline-9,10(4H)-dione], the IC50 (in the test with BHK-21 cells; in test [1]; in [2]; in [3]; in [4]; in [5]) was 0.05 to 5 mM in each case. Moreover, the values for the IC50 (in test [6]; in the test with NF-κB; in test [7]) were 0.05 to 5 mM, 0.1 to 1 µM and 1 to 10 µM, respectively.

Take `O=C1c2c(nc3ccccc3c2OCC(F)(F)F)-c2cccn21` [Compound 657b, 9-(2,2,2-trifluoroethoxy)-10H-pyrrolizino[1,2-b]quinolin-10-one]: the IC50 (in the test on BHK-21 cells; in test [1]; in [2]; in test [3]; in test [4]; in test [5]) was 0.05 to 5 mM throughout. Besides, the IC50 in test [6] was in the range of 0.05 to 5 mM; in the test with NF-κB it was 10 to 50 µM; in [7], 1 to 10 µM.

Regarding `CN(C)CCCn1c2c(c(=O)c3ccccc31)C(=O)n1cccc1-2` [Compound 658a, 4-(3-(Dimethylamino)propyl)-9H-pyrrolizino[1,2-b]quinoline-9,10(4H)-dione], the IC50 (with BHK-21 cells; in test [1]; in test [2]; in test [3]; in test [4]; in test [5]) was 0.05 to 5 mM each time. The IC50 in test [6] was in the range of 0.05 to 5 mM; in the test with NF-κB it was 0.001 to 0.1 µM; in test [7], 1 to 10 µM.

As to `CN(C)CCCOc1c2c(nc3ccccc13)-c1cccn1C2=O` [Compound 658b, 9-(3-(dimethylamino)propoxy)-10H-pyrrolizino[1,2-b]quinolin-10-one], the IC50 (in the test with BHK-21 cells; in [1]; in test [2]; in test [3]; in [4]; in test [5]) was 0.05 to 5 mM each time. Further, the IC50 in [6] was in the range of 0.05 to 5 mM; with NF-κB, 1 to 10 µM; in test [7], 1 to 10 µM.

As for `CS(=O)(=O)CCCn1c2c(c(=O)c3ccccc31)C(=O)n1cccc1-2` [Compound 659a, 4-(3-(Methylsulfonyl)propyl)-9H-pyrrolizino[1,2-b]quinoline-9,10(4H)-dione], the IC50 (in the test on BHK-21 cells; in test [1]; in [2]; in test [3]; in [4]; in test [5]) was 0.05 to 5 mM throughout. Moreover, the IC50 in test [6] was in the range of 0.05 to 5 mM; in the test with NF-κB, 1 to 10 µM; in test [7], 1 to 10 µM.

As for `CS(=O)(=O)CCCOc1c2c(nc3ccccc13)-c1cccn1C2=O` [Compound 659b, 9-(3-(methylsulfonyl)propoxy)-10H-pyrrolizino[1,2-b]quinolin-10-one], the IC50 (in the test with BHK-21 cells; in test [1]; in [2]; in test [3]; in [4]; in test [5]) was 0.05 to 5 mM throughout. The IC50 was in the range of 0.05 to 5 mM in [6], 1 to 10 µM with NF-κB and 1 to 10 µM in test [7].

Regarding `CC(C)(O)Cn1c2c(c(=O)c3ccccc31)C(=O)n1cccc1-2` [Compound 660a, 4-(2-Hydroxy-2-methylpropyl)-9H-pyrrolizino[1,2-b]quinoline-9,10(4H)-dione], the IC50 (with BHK-21 cells; in test [1]; in [2]; in test [3]; in test [4]; in test [5]) was 0.05 to 5 mM in each case. The IC50 fell in the range of 0.05 to 5 mM in test [6], 1 to 10 µM with NF-κB and 1 to 10 µM in test [7].

For `CC(C)(O)COc1c2c(nc3ccccc13)-c1cccn1C2=O` [Compound 660b, 9-(2-hydroxy-2-methylpropoxy)-10H-pyrrolizino[1,2-b]quinolin-10-one], the IC50 (in the test on BHK-21 cells; in [1]; in [2]; in test [3]; in [4]; in test [5]) was 0.05 to 5 mM in each case. For the same compound, the IC50 in test [6] is 0.05 to 5 mM; in the test on NF-κB it was 1 to 10 µM; in [7], 1 to 10 µM.

For the compound `CCOC(=O)/C=C/Cn1c2c(c(=O)c3ccccc31)C(=O)n1cccc1-2` [Compound 661a, Ethyl (E)-4-(9,10-dioxo-9H-pyrrolizino[1,2-b]quinolin-4(10H)-yl)but-2-enoate], the IC50 in the test with BHK-21 cells is under 0.05 mM; in [1], 0.05 to 5 mM; in test [2] it was 0.05 to 5 mM; in test [3], 0.05 to 5 mM; in [4] it was 0.05 to 5 mM; in test [5], 0.05 to 5 mM. Besides, the IC50 in test [6] fell in the range of 0.05 to 5 mM; with NF-κB it was 0.1 to 1 µM; in test [7], 1 to 10 µM.

Turning to `CCOC(=O)/C=C/COc1c2c(nc3ccccc13)-c1cccn1C2=O` [Compound 661b, ethyl (E)-4-((10-oxo-10H-pyrrolizino[1,2-b]quinolin-9-yl)oxy)but-2-enoate], the IC50 (with BHK-21 cells; in [1]; in test [2]; in [3]; in [4]; in [5]) was 0.05 to 5 mM throughout. The IC50 in test [6] lay within 0.05 to 5 mM; in the test with NF-κB it was 1 to 10 µM; in test [7], 1 to 10 µM.
